Assay results: PMC6934184, “Selective DNA-PKcs inhibition extends the therapeutic index of localized radiotherapy and chemotherapy” (The Journal of Clinical Investigation, 2019)

Target: T1, PDGFRA (PDGFR alpha) (Homo sapiens, UniProt P16234)
T1 construct: purchased Thermo Fisher Scientific (Life Technologies) SelectScreen
Assay: SelectScreen Z'LYTE
Type: biochemical
Summary of the method: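 Percent values come from Thermo SelectScreen profiling of NU5455, combining activity and binding assays. CSF1R was run in Z'LYTE format at Km app ATP, and CAMK1 in Adapta format with ATP listed at 10.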

T1 sequence (P16234 24-1089): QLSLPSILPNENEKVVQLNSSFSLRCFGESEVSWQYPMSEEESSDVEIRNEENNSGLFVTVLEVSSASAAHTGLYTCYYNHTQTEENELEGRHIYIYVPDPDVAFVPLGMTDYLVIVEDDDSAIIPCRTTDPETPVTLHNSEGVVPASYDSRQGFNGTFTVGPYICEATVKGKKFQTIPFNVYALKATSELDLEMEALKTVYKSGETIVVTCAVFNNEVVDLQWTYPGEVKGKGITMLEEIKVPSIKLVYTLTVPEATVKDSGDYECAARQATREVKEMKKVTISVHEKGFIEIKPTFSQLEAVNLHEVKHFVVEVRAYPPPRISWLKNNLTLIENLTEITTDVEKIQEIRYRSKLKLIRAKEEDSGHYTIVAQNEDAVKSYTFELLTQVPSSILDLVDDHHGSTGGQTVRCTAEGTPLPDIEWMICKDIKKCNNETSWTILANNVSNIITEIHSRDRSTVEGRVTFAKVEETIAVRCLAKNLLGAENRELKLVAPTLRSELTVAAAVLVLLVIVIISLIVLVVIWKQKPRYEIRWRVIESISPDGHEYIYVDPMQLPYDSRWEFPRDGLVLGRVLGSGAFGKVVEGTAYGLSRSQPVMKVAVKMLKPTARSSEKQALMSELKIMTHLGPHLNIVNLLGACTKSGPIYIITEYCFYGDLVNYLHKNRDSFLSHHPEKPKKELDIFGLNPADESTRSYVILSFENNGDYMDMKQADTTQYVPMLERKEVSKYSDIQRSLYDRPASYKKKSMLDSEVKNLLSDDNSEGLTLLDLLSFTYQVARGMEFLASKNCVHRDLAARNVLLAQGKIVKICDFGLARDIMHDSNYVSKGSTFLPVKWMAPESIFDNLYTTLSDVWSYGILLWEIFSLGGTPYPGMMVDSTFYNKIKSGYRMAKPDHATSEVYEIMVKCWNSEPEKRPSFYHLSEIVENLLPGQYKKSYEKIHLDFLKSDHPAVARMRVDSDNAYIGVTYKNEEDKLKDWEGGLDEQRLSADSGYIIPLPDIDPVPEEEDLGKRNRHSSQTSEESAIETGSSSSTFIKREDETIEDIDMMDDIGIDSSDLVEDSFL

`CN(C(=O)CN1CCOCC1)c1ccc2sc3c(-c4cccc5c(=O)cc(N6CC7CCC(C6)O7)oc45)cccc3c2c1` [NU5455] showed an inhibition at 1 µM of -6.8%.
